#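 A five-concentration, 48-hour dose response in 96-well plates underlies each endpoint, interpolated linearly between surrounding concentrations. GI50: concentration for 50% inhibition of growth.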 Activity calls are given as the source filed them. No stated cut-off is given here; in the data, active = GI50 up to about 1.1 µM and inactive = higher.
# Tests used:
# Assay in all cases: DTP human tumour cell line panel, 48 h
# HT-29 = tested on: HT-29
# NCI-H460 = tested on: NCI-H460
# EKVX = tested on: EKVX
# HL-60 = tested on: HL-60
# OVCAR-8 = tested on: OVCAR-8
# HOP-62 = tested on: HOP-62
# HOP-18 = tested on: HOP-18
# MDA-MB-435 = tested on: MDA-MB-435
# MDA-MB-231 = tested on: MDA-MB-231
# DMS-273 = tested on: DMS-273
# CAKI-1 = tested on: CAKI-1
# SK-OV-3 = tested on: SK-OV-3
# U-251 = tested on: U-251
# DLD-1 = tested on: DLD-1
# K562 = tested on: K562
# HCC 2998 = tested on: HCC 2998
# IGROV-1 = tested on: IGROV-1
# SN12C = tested on: SN12C
# SR = tested on: SR
# COLO 205 = tested on: COLO 205
# KM12 = tested on: KM12
# MDA-N = tested on: MDA-N
# T47D = tested on: T47D
# NCI-H522 = tested on: NCI-H522
# LOX IMVI = tested on: LOX IMVI
# KM-20L2 = tested on: KM-20L2
# MOLT-4 = tested on: MOLT-4
# M14 = tested on: M14
# PC-3 = tested on: PC-3
# SK-MEL-5 = tested on: SK-MEL-5
# A549 = tested on: A549
# HCT-116 = tested on: HCT-116
# SNB-19 = tested on: SNB-19
# NCI/ADR-RES = tested on: NCI/ADR-RES
# SNB-75 = tested on: SNB-75
# MCF7 = tested on: MCF7
# LXFL 529 = tested on: LXFL 529
# UO-31 = tested on: UO-31
# A498 = tested on: A498
# SK-MEL-28 = tested on: SK-MEL-28
# RPMI-8226 = tested on: RPMI-8226
# SW-620 = tested on: SW-620
# OVCAR-4 = tested on: OVCAR-4
# 786-0 = tested on: 786-0
# NCI-H23 = tested on: NCI-H23
# RXF 393 = tested on: RXF 393
# ACHN = tested on: ACHN
# Malme-3M = tested on: Malme-3M
# TK-10 = tested on: TK-10
# Hs-578T = tested on: Hs-578T
# SNB-78 = tested on: SNB-78
# OVCAR-5 = tested on: OVCAR-5
# SF-539 = tested on: SF-539
# UACC-257 = tested on: UACC-257
# UACC-62 = tested on: UACC-62
# OVCAR-3 = tested on: OVCAR-3
# HCT-15 = tested on: HCT-15
# SF-268 = tested on: SF-268
# SK-MEL-2 = tested on: SK-MEL-2
# HOP-92 = tested on: HOP-92
# SF-295 = tested on: SF-295
# DU-145 = tested on: DU-145
smiles,measurement,setting,value
CC(=O)NC1C(OCc2ccccc2)OC(CO)C(O)C1OC(C)C(=O)NC(C)C(=O)N[C@@H](CCC(=O)OCCCNC1c2ccccc2Nc2cccc([N+](=O)[O-])c21)C(N)=O (stereo not given in full),GI50,HT-29,< 10 nM (active)
same,GI50,NCI-H460,< 10 nM (active)
same,GI50,EKVX,13.5 nM (active)
same,GI50,HL-60,< 11.7 nM (active)
same,GI50,OVCAR-8,< 10 nM (active)
same,GI50,HOP-62,< 10 nM (active)
same,GI50,HOP-18,< 10 nM (active)
same,GI50,MDA-MB-435,15.7 nM (active)
same,GI50,MDA-MB-231,28.2 nM (active)
same,GI50,DMS-273,< 10 nM (active)
same,GI50,CAKI-1,< 10 nM (active)
same,GI50,SK-OV-3,19.4 nM (active)
same,GI50,U-251,< 10 nM (active)
same,GI50,DLD-1,< 10 nM (active)
same,GI50,K562,< 10 nM (active)
same,GI50,HCC 2998,< 10 nM (active)
same,GI50,IGROV-1,22.2 nM (active)
same,GI50,SN12C,< 10 nM (active)
same,GI50,SR,< 10 nM (active)
same,GI50,COLO 205,< 10 nM (active)
same,GI50,KM12,< 10 nM (active)
same,GI50,MDA-N,15.2 nM (active)
same,GI50,T47D,174 nM (active)
same,GI50,NCI-H522,< 10 nM (active)
same,GI50,LOX IMVI,26.9 nM (active)
same,GI50,KM-20L2,< 10 nM (active)
same,GI50,MOLT-4,10.2 nM (active)
same,GI50,M14,< 10 nM (active)
same,GI50,PC-3,26.6 nM (active)
same,GI50,SK-MEL-5,< 10 nM (active)
same,GI50,A549,< 10 nM (active)
same,GI50,HCT-116,< 10 nM (active)
same,GI50,SNB-19,< 12.4 nM (active)
same,GI50,NCI/ADR-RES,14.5 nM (active)
same,GI50,SNB-75,13.5 nM (active)
same,GI50,MCF7,12.4 nM (active)
same,GI50,LXFL 529,< 10 nM (active)
same,GI50,UO-31,< 10 nM (active)
same,GI50,A498,< 10 nM (active)
same,GI50,SK-MEL-28,< 10 nM (active)
same,GI50,RPMI-8226,< 10 nM (active)
same,GI50,SW-620,< 10 nM (active)
same,GI50,OVCAR-4,< 11.1 nM (active)
same,GI50,786-0,< 10 nM (active)
same,GI50,NCI-H23,< 10 nM (active)
same,GI50,RXF 393,14.1 nM (active)
same,GI50,ACHN,< 10 nM (active)
same,GI50,Malme-3M,< 10 nM (active)
same,GI50,TK-10,< 10 nM (active)
same,GI50,Hs-578T,21.6 nM (active)
same,GI50,SNB-78,12.1 nM (active)
same,GI50,OVCAR-5,22.3 nM (active)
same,GI50,SF-539,< 10 nM (active)
same,GI50,UACC-257,12.3 nM (active)
same,GI50,UACC-62,< 10 nM (active)
same,GI50,OVCAR-3,< 10 nM (active)
same,GI50,HCT-15,2.8 nM
same,GI50,SF-268,< 10 nM (active)
same,GI50,SK-MEL-2,< 10 nM (active)
same,GI50,HOP-92,< 10 nM (active)
same,GI50,SF-295,15.5 nM (active)
same,GI50,DU-145,31.4 nM (active)
COc1cc(C2c3cc4c(cc3[C@@H](NCCN3CCOCC3)C3COC(=O)[C@H]23)OCO4)cc(OC)c1O (stereo not given in full),GI50,HT-29,5730 nM (inactive)
same,GI50,EKVX,16400 nM (inactive)
same,GI50,OVCAR-8,3050 nM (inactive)
same,GI50,HOP-62,782 nM (active)
same,GI50,HOP-18,4520 nM (inactive)
same,GI50,DMS-273,805 nM (active)
same,GI50,CAKI-1,2080 nM (inactive)
same,GI50,U-251,1260 nM (inactive)
same,GI50,DLD-1,5450 nM (inactive)
same,GI50,K562,3010 nM (inactive)
same,GI50,HCC 2998,2440 nM (inactive)
same,GI50,IGROV-1,5520 nM (inactive)
same,GI50,KM12,4010 nM (inactive)
same,GI50,NCI-H522,3160 nM (inactive)
same,GI50,LOX IMVI,1770 nM (inactive)
same,GI50,KM-20L2,5200 nM (inactive)
same,GI50,M14,3980 nM (inactive)
same,GI50,HCT-116,2860 nM (inactive)
same,GI50,SNB-19,4890 nM (inactive)
same,GI50,LXFL 529,> 17500 nM (inactive)
same,GI50,UO-31,2940 nM (inactive)
same,GI50,SK-MEL-28,3660 nM (inactive)
same,GI50,SW-620,2080 nM (inactive)
same,GI50,OVCAR-4,> 17500 nM (inactive)
same,GI50,786-0,2100 nM (inactive)
same,GI50,RXF 393,2900 nM (inactive)
same,GI50,Malme-3M,3760 nM (inactive)
same,GI50,TK-10,5560 nM (inactive)
same,GI50,SNB-78,> 17500 nM (inactive)
same,GI50,SF-539,993 nM (active)
same,GI50,UACC-257,4400 nM (inactive)
same,GI50,UACC-62,2090 nM (inactive)
same,GI50,OVCAR-3,4130 nM (inactive)
same,GI50,HCT-15,2810 nM
same,GI50,SF-268,2060 nM (inactive)
same,GI50,SK-MEL-2,4890 nM (inactive)
same,GI50,HOP-92,1310 nM (inactive)
same,GI50,SF-295,2490 nM (inactive)
